Measurements as given in patent US7708999B2, “Remedies for arthritis” (Kyowa Hakko Kirin Co., Ltd., priority 2001, dated 2010).

Assays:
[1] = test system: rat adjuvant arthritis model; test: Rat adjuvant arthritis model; type: in vivo; conditions: for Bone destruction score / Bone destruction score (% inhibition): Table 2; for Bone destruction score: soft X-ray of calcaneus, adjuvant-untreated paw, day 21, maximum 5, mean ± standard error, oral comparators; for Bone destruction score (% inhibition) / inhibition of the increase in paw volume, adjuvant-untreated paw: vs solvent group; for inhibition of the increase in paw volume, adjuvant-untreated paw: day 21, oral, 1 mL per 100 g: sodium diclofenac 0.3 mg/mL, methotrexate 0.01 mg/mL, prednisolone 0.3 mg/mL; for inhibition of the increase (decrease) in amount of glycosaminoglycan in urine / inhibition of the increase (decrease) in amount of deoxypyridinoline in urine: urine day 20 to 21, oral comparators vs solvent group; for inhibition of the increase (decrease) in amount of glycosaminoglycan in urine: diclofenac and prednisolone not significant; for inhibition of the increase (decrease) in amount of deoxypyridinoline in urine: methotrexate and prednisolone not significant
Method: The rat adjuvant arthritis model was performed in the following manner according to the method of Pearson et al. (Pearson CM. et al., Arthritis Rheum., 5, 654-658, 1962) using Lewis rats (female, 8 weeks old, Japan Charles River).
Mycobacterium butyricum (manufactured by Difco) was suspended in a liquid paraffin (manufactured by Wako Pure Chemical Industries, Ltd.) to a final concentration of 6 mg/mL, and sterilized with a autoclave. The resulting solution was intradermally injected into the rat right hind pad in an amount of 100 μL for sensitization. One group consisted of 8 to 10 rats. Anti-FGF-8 neutralizing antibody KM1334 was dissolved in saline to a final concentration of 2 mg/mL. The solution was intraperitoneally administered to a KM1334 administrated group once a day at a dose of 0.5 mL per 100 g of the body weight for each rat on the sensitization day of the rat adjuvant arthritis model and on days 3, 7, 10, 14 and 17 from the sensitization. To saline administrated group, only saline was intraperitoneally administered instead of the anti-FGF-8 neutralizing antibody KM1334 solution. Further, sodium diclofenac, an antiinflammatory agent, was dissolved in a 0.5 w/v % methyl cellulose solution to a final concentration of 0.3 mg/mL, and the solution was orally administered to a sodium diclofenac administrated group as a positive control once a day at a dose of 1 mL per 100 g of the body weight on days 4, 7 to 11 and 14 to 18 from the adjuvant sensitization day. 50 mg of methotrexate® for injection (manufactured by Wyeth Japan) as a metabolic antagonist was dissolved in a 0.5 w/v % methyl cellulose solution to a final concentration of 0.01 mg/mL, and the solution was administered to a methotrexate administrated group in the same manner as in the sodium diclofenac administrated group. Prednisolone (manufactured by Sigma-Aldrich), a steroidal agent, was suspended in a 0.5 w/v % methyl cellulose solution to a final concentration of 0.3 mg/mL, and the suspension was administered to a prednisolone administrated group in the same manner as in the sodium diclofenac administrated group. Further, a 0.5 w/v % methyl cellulose solution alone was orally administered to a solvent administrated group in the same manner. An untreated group was used, and it was not subjected to sensitization with Mycobacterium butyricum and administration of an agent. The volumes of the adjuvant-treated paw and the adjuvant-untreated paw were measured as time goes by using a device for measuring edemas of rat hind paw (TK-101, manufactured by Unicom).
Using urine collected for 24 hours at day 20 and day 21 after the sensitization, the amounts of glycosaminoglycan, deoxypyridinoline, hydroxyproline and creatinine in urine were measured. The amount of glycosaminoglycan in urine was measured by the DMMB method described in Example 1. The amount of hydroxyproline in urine was measured by the method of Ikeda et al. (Ikeda Shingo et al., Tokyo Eiken Nenpo, 36 277-282, 1985). That is, 0.8 mL of hydrochloric acid for amino acid analysis (manufactured by Kanto Kagaku) was added to 0.8 mL of urine to hydrolyze at 110° C. for 15 hours. To 0.5 mL of the hydrolyzed sample was added 2 mL of a 1.2 mol/L sodium hydroxide solution for neutralization. 1 mL of isopropanol was added to 0.5 mL of the neutralized sample, and 1 ml of an oxidant solution was added. The mixture was stirred well, and allowed to stand at room temperature for 5 minutes. […]

[2] = biological target: T1, compound 1 as a partial peptide of FGF-8 (Homo sapiens, UniProt P55075); test: FGF-8 binding activity by BIAcore 2000, immobilized biotin-labeled compound 1; conditions: antibody 16.7 μg/mL; FGF-8 peptide immobilized 35 RU
T1 construct: 17; made in house; host or cells: chemical synthesis
T1 sequence (P55075 with tags, fused parts or gaps isoform P55075-3 limits assumed): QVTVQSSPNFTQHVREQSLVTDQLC
Method: In order to examine the FGF-8 binding activity of the anti-FGF-8 neutralizing CDR-grafted antibodies obtained in 5. of Reference Example 3, the FGF-8 binding activity of the various anti-FGF-8 neutralizing CDR-grafted antibodies was measured and compared through BIAcore 2000 using compound 1 as a partial peptide of FGF-8 with the C terminal labeled with biotin in the following manner. The anti-FGF-8 neutralizing chimeric antibody KM3034 derived from CHO/DG44 cells obtained in 3. (1) of Reference Example 1 was used as a positive control.
HBS-EP was used as a sample diluent and a buffer during measurement. First, Sensor Chip SA (manufactured by BIACORE) was installed, and 5 μL of compound 1 labeled with biotin which had been adjusted to 0.05 μg/mL was added at a flow rate of 5 μL/min. Then, 5 μL of a 10 mmol/L glycine-hydrochloride solution (pH 1.5) was added twice continuously to wash the tip surface. The immobilization amount of the FGF-8 peptide was 35 RU.
60 μL of each of the antibody solutions was added to an FGF-8 peptide immobilized flow cell at a flow rate of 20 μL/min, and the dissociation reaction was then monitored for 3 minutes. After the dissociation reaction, 20 μL of 10 mmol/L glycine-hydrochloride solution (pH 1.5) was added twice continuously to regenerate the chip surface. This cycle was performed on the antibody solution at various concentrations (from 50 to 1.85 μg/mL) to obtain sensor grams at various concentrations. The sensor grams of the respective antibodies were converted to sensor grams of specific reactions by deduceing a sensor gram obtained using the chimeric antibody KM871 to GD3 as a negative control.

Molecule: CN(Cc1cnc2nc(N)nc(N)c2n1)c1ccc(C(=O)N[C@@H](CCC(=O)O)C(=O)O)cc1 [methotrexate]
- Bone destruction score [1]: 0.9 ± 0.4
- Bone destruction score (% inhibition) [1]: 80%
- inhibition of the increase in paw volume, adjuvant-untreated paw [1]: 90%
- inhibition of the increase (decrease) in amount of glycosaminoglycan in urine [1]: 79%
- inhibition of the increase (decrease) in amount of deoxypyridinoline in urine [1]: 34%

Molecule: C[C@]12C=CC(=O)C=C1CC[C@@H]1[C@@H]2[C@@H](O)C[C@@]2(C)[C@H]1CC[C@]2(O)C(=O)CO [prednisolone, Prednisolone]
- Bone destruction score [1]: 1.8 ± 0.7
- Bone destruction score (% inhibition) [1]: 61%
- inhibition of the increase in paw volume, adjuvant-untreated paw [1]: 51%
- inhibition of the increase (decrease) in amount of glycosaminoglycan in urine [1]: 18%
- inhibition of the increase (decrease) in amount of deoxypyridinoline in urine [1]: 38%

B1: HV0LV2-2/CHO: CHO/DG44 cell-derived anti-FGF-8 neutralizing CDR-grafted antibody, VH HV.0, VL LV.2-2 (SEQ ID NO. 47) (antibody, V domains shown)
VH: QVQLVQSGAEVKKPGASVKVSCKASGYTFTDYYLNWVRQAPGQGLEWMGEIDPGSDSIYYNENLEGRVTITADTSTSTAYMELSSLRSEDTAVYYCARYGYSRYDVRFVYWGQGTLVTVSS
VL: DVVMTQSPLSLPVTPGEPASISCRSSQSLVHSNGRTYLEWYLQKPGQSPQLLIYKVSNRISGVPDRFSGSGSGTDFTLKISRVEAEDVGVYFCFQGSHVPYTFGQGTKVEIK
- binding reaction [resonance signal (RU)] [2]: the lower binding reaction

B2: HV0LV0/CHO: CHO/DG44 cell-derived anti-FGF-8 neutralizing CDR-grafted antibody, VH HV.0, VL LV.0 (antibody, V domains shown)
VH: QVQLVQSGAEVKKPGASVKVSCKASGYTFTDYYLNWVRQAPGQGLEWMGEIDPGSDSIYYNENLEGRVTITADTSTSTAYMELSSLRSEDTAVYYCARYGYSRYDVRFVYWGQGTLVTVSS
VL: DIVMTQSPLSLPVTPGEPASISCRSSQSLVHSNGRTYLEWYLQKPGQSPQLLIYKVSNRISGVPDRFSGSGSGTDFTLKISRVEAEDVGVYYCFQGSHVPYTFGQGTKVEIK
- binding reaction [resonance signal (RU)] [2]: the lowest binding reaction

B3: KM3034: anti-FGF-8 neutralizing human chimeric antibody, VH SEQ ID NO. 5, VL SEQ ID NO. 6, human γ1/κ, CHO/DG44 cell-derived (FERM BP-7836) (antibody, listed as Mus musculus, V domains shown)
VH: QVQLQQSGAEVARPGASVKLSCKASGYTFTDYYLNWVKQRSGQGLEWIGEIDPGSDSIYYNENLEGRATLTADKSSSTAYMQLNSLTSEDSAVYFCARYGYSRYDVRFVYWGQGTLVTVST
VL: DVLMTQTPLSLPVSLGDQASISCRSSQSLVHSNGRTYLEWYLQKPGQSPKVLIYKVSNRISGVPDRFSGSGSGTDFTLKISRVEAEDLGVYFCFQGSHVPYTFGGGTKLEIK
- binding reaction [resonance signal (RU)] [2]: the highest binding reaction

B4: HV0LV3-2/CHO: CHO/DG44 cell-derived anti-FGF-8 neutralizing CDR-grafted antibody, VH HV.0, VL LV.3-2 (SEQ ID NO. 45) (antibody, V domains shown)
VH: QVQLVQSGAEVKKPGASVKVSCKASGYTFTDYYLNWVRQAPGQGLEWMGEIDPGSDSIYYNENLEGRVTITADTSTSTAYMELSSLRSEDTAVYYCARYGYSRYDVRFVYWGQGTLVTVSS
VL: DIVMTQSPLSLPVSLGEPASISCRSSQSLVHSNGRTYLEWYLQKPGQSPQLLIYKVSNRISGVPDRFSGSGSGTDFTLKISRVEAEDVGVYFCFQGSHVPYTFGQGTKVEIK
- binding reaction [resonance signal (RU)] [2]: the lower binding reaction

B5: HV0LV6/CHO: CHO/DG44 cell-derived anti-FGF-8 neutralizing CDR-grafted antibody, VH HV.0 (SEQ ID NO. 18), VL LV.6 (SEQ ID NO. 21) (antibody, V domains shown)
VH: QVQLVQSGAEVKKPGASVKVSCKASGYTFTDYYLNWVRQAPGQGLEWMGEIDPGSDSIYYNENLEGRVTITADTSTSTAYMELSSLRSEDTAVYYCARYGYSRYDVRFVYWGQGTLVTVSS
VL: DVVMTQSPLSLPVSLGEPASISCRSSQSLVHSNGRTYLEWYLQKPGQSPKVLIYKVSNRISGVPDRFSGSGSGTDFTLKISRVEAEDVGVYFCFQGSHVPYTFGQGTKVEIK
modifications: HV.0, a designed amino acid sequence of VH of an anti-FGF-8 CDR-grafted neutralizing antibody; LV.6, a designed amino acid sequence of VL of an anti-FGF-8 CDR-grafted neutralizing antibody
- binding reaction [resonance signal (RU)] [2]: the highest binding reaction

B6: HV0LV4-2/CHO: CHO/DG44 cell-derived anti-FGF-8 neutralizing CDR-grafted antibody, VH HV.0, VL LV.4-2 (SEQ ID NO. 43) (antibody, V domains shown)
VH: QVQLVQSGAEVKKPGASVKVSCKASGYTFTDYYLNWVRQAPGQGLEWMGEIDPGSDSIYYNENLEGRVTITADTSTSTAYMELSSLRSEDTAVYYCARYGYSRYDVRFVYWGQGTLVTVSS
VL: DVVMTQSPLSLPVSLGEPASISCRSSQSLVHSNGRTYLEWYLQKPGQSPQLLIYKVSNRISGVPDRFSGSGSGTDFTLKISRVEAEDVGVYFCFQGSHVPYTFGQGTKVEIK
- binding reaction [resonance signal (RU)] [2]: the lower binding reaction
